In patent US20150057317A1, “GABR-A2 DIAGNOSTIC” (AstraZeneca AB, priority 2011, published 2015):

What was measured:
[1] = molecular target: NR1A/2A subtype of the NMDA receptor (Homo sapiens, UniProt Q05586+Q12879); conditions: cited from earlier work
[2] = test system: patients with depression (poor responders to medications used in the treatment of depression); test: Phase II study in depression, MADRS response by GABR-A2 SNP genotype; assay type: in vivo, human; conditions: for Additive genetic effect of minor allele on change in MADRS total score: treatment group
Text: Genomic DNA samples were collected from individuals enrolled in a Phase 11 study of COMPOUND A (total number of patients in the study was 152). The Phase II study was designed to measure the efficacy of COMPOUND A in the treatment of depression. Patients were selected for enrolment in the aforementioned Phase II study on the basis of their prior treatment history which defined them as poor responders to medications used in the treatment of depression. Common genetic variations (single nucleotide polymorphisms, SNPs) in genes encoding brain derived neurotrophic factor (BDNF) and the alpha-2 subunit of the GABAA receptor (GABR-A2) were tested using TaqMan® assays to measure their influence on the response to treatment for depression with COMPOUND A (an N-methyl-D-aspartate (NMDA) antagonist). Montgomery-Åsberg Depression Rating Scale (MADRS; Montgomery SA, Asberg M (April 1979). “A new depression scale designed to be sensitive to change”. British Journal of Psychiatry 134 (4): 382-89) was used as a measurement of treatment response. Thirty-two SNPs were selected for genotyping in GABR-A2 and six SNPs in BDNF.
However, the results from the GABR-A2 gene did indicate an influence on change in MADRS from baseline for a number of SNPs, with the rs3756007 SNP showing the strongest association. Table 1 lists those genetic variations tested for which, on average, the minor allele positively influenced change in MADRS after treatment with COMPOUND A. The P value from the patients treated with the drug (treatment group) is also shown (therapeutic_pvalue).
TaqMan® assays were used to detect the particular SNPs within the target genes. Each TaqMan® assay is specific for a given mutation or allele, i.e. designed to detect an alternate base relative to another base at a given position. each TaqMan® assay contains sequence-specific forward and reverse primers to amplify the polymorphic sequence of interest in the target gene along with TaqMan® probes labelled with different fluorescent tags to identify the target base (SNP). The TaqMan® assays were ordered from Applied Biosystems® and where possible Pre-Designed SNP Genotyping Assays were used. Each of the GABR-A2 SNPs showing association with an influence on the response to treatment for depression with COMPOUND A were detected using the commercially available Pre-Designed SNP Genotyping Assays.
For each SNP assay, genomic DNA was extracted from the clinical sample and the TaqMan® assay was carried out using the primers in Table 2. For the TaqMan® reaction approximately 10 ng of genomic DNA was used, in a total reaction volume of 2 ul. The reaction used TaqMan® Genotyping Master Mix (Applied Biosystems®, part number 4381657). The TaqMan® Genotyping Master Mix was diluted 1:1 with deionised water and the TaqMan® assay used at 80× concentration. The reaction was then securely sealed before Thermal Cycling. Cycle conditions: 95° C. for 10 minutes followed by 40 cycles of 92° C. for 15 seconds, 60° C. for 60 seconds in a Thermal Cycler instrument (KBiosystems DT-108 Thermal Cycler). The plate was then analysed on the Applied Biosystems® 7900HT Sequence Detection System using the pre-programmed “Allelic Discrimination” analysis in the Applied Biosystems® SDS v2.4 Software.

[3] = test system: human volunteers and patients; conditions: cited from earlier work
patients with MDD = conditions: cited from earlier work

Chain of NR1A/2A subtype of the NMDA receptor (Q12879 23-1464, other chains not shown): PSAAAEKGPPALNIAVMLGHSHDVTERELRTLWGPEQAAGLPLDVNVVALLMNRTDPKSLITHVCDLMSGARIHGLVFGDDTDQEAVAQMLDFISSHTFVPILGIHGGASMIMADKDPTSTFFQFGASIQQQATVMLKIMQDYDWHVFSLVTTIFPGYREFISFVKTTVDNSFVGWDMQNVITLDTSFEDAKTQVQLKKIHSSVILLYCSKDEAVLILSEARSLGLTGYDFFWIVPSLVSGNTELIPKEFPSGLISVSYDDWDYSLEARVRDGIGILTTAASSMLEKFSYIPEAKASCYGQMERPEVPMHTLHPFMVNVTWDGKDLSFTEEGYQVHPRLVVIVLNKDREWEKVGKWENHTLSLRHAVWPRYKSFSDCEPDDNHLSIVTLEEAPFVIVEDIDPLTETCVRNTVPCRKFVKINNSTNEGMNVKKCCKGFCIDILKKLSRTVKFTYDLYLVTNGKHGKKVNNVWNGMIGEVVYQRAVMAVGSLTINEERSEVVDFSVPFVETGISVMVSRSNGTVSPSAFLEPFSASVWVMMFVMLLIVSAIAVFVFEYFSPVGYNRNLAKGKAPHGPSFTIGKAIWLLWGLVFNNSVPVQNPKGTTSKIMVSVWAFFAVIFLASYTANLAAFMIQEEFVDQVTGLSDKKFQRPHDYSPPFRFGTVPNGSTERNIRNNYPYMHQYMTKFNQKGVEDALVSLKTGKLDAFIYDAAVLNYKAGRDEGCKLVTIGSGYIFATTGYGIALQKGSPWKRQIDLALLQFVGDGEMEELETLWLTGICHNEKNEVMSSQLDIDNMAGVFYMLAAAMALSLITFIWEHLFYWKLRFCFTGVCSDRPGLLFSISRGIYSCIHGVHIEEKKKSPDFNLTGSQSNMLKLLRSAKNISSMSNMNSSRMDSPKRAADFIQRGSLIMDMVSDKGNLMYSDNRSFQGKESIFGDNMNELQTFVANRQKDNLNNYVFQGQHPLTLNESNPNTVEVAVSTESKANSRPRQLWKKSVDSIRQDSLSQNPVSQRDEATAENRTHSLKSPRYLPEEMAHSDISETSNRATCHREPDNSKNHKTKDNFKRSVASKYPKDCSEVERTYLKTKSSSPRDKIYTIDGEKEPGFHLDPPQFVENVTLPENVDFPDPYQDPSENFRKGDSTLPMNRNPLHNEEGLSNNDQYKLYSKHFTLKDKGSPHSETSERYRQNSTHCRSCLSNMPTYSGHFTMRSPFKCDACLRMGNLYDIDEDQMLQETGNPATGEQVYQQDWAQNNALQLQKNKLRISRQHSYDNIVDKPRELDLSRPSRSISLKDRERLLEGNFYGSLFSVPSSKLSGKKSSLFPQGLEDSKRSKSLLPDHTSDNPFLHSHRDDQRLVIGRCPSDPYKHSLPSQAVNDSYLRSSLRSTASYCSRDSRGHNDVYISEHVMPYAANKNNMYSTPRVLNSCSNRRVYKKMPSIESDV

| Structure (SMILES) | IC50 [1] [µM] | Additive genetic effect of minor allele on change in MADRS total score ([2]; SNP rs1372472, minor allele T, therapeutic P value 0.0108) | Additive genetic effect of minor allele on change in MADRS total score ([2]; SNP rs3756007, minor allele C, therapeutic P value 0.0021) | Additive genetic effect of minor allele on change in MADRS total score ([2]; SNP rs11503016, minor allele T, therapeutic P value 0.0374) | Additive genetic effect of minor allele on change in MADRS total score ([2]; SNP rs17537359, minor allele C, therapeutic P value 0.0038) | improvement in minor allele carriers versus major allele homozygote ([2]; minor allele at rs3756007, rs11503016, rs17537359 and rs1372472, on average) | propensity for causing psychotomimetic effects ([3]; compared with effects found with ketamine exposure) | tolerability ([3]; more than 500 human volunteers and patients) | antidepressant effects (patients with MDD) |
| --- | --- | --- | --- | --- | --- | --- | --- | --- | --- |
| N[C@@H](Cc1ccccn1)c1ccccc1 [COMPOUND A, (S)-1-phenyl-2-(pyridin-2-yl)ethanamine] | 0.35 | −4.83 | −12.84 | −5.33 | −9.40 | greater improvement | little propensity | very well tolerated | – |
| CNC1(c2ccccc2Cl)CCCCC1=O (stereo not drawn) [ketamine] | – | – | – | – | – | – | – | – | rapid antidepressant effects |
